Data: ChEMBL document CHEMBL2062499, “Synthesis of benzofuran based 1,3,5-substituted pyrazole derivatives: as a new class of potent antioxidants and antimicrobials--a novel accost to amend biocompatibility” (Bioorg Med Chem Lett, 2012)

What was measured:
Pseudomonas aeruginosa [1] = assay: Antibacterial activity Pseudomonas aeruginosa ATCC 27853 at 0.5 mg/ml after 24 hrs by well plate method; format: functional; conditions: ATCC 27853, 24 h, read-out: DIZ
Escherichia coli [2] = assay: Antibacterial activity Escherichia coli ATCC 25922 at 1 mg/ml after 24 hrs by well plate method; format: functional; conditions: ATCC 25922, 24 h, read-out: DIZ
Staphylococcus aureus [3] = assay: Antibacterial activity Staphylococcus aureus ATCC 25923 at 1 mg/ml after 24 hrs by well plate method; format: functional; conditions: ATCC 25923, 24 h, read-out: DIZ
Escherichia coli [4] = assay: Antibacterial activity Escherichia coli ATCC 25922 at 0.5 mg/ml after 24 hrs by well plate method; format: functional; conditions: ATCC 25922, 24 h, read-out: DIZ
Staphylococcus aureus [5] = assay: Antibacterial activity Staphylococcus aureus ATCC 25923 at 0.5 mg/ml after 24 hrs by well plate method; format: functional; conditions: ATCC 25923, 24 h, read-out: DIZ
Pseudomonas aeruginosa [6] = assay: Antibacterial activity Pseudomonas aeruginosa ATCC 27853 at 1 mg/ml after 24 hrs by well plate method; format: functional; conditions: ATCC 27853, 24 h, read-out: DIZ
Candida albicans [7] = assay: Antifungal activity against Candida albicans MTCC 2827 at 1 mg/ml after 72 hrs by well plate method; format: functional; conditions: MTCC 2827, 72 h, read-out: DIZ
[8] = Antifungal activity against Chrysosporium keratinophilum MTCC 3017 at 1 mg/ml after 72 hrs by well plate method; format: functional
Candida albicans [9] = assay: Antifungal activity against Candida albicans MTCC 2827 at 0.5 mg/ml after 72 hrs by well plate method; format: functional; conditions: MTCC 2827, 72 h, read-out: DIZ
Liver microsomes = assay: Antioxidant activity in Wistar rat liver microsomes assessed as inhibition of microsomal lipid peroxidation after 15 mins by MDA-TBA assay; format: functional, Microsome
[10] = test system: Radical scavenging activity; assay: Antioxidant activity assessed as DPPH radical scavenging activity after 20 mins by UV-Vis spectrophotometric analysis; format: functional
[11] = Antifungal activity against Chrysosporium keratinophilum MTCC 3017 at 0.5 mg/ml after 72 hrs by well plate method; format: functional
Aspergillus flavus [12] = assay: Antifungal activity against Aspergillus flavus MTCC 3306 at 0.5 mg/ml after 72 hrs by well plate method; format: functional; conditions: MTCC 3306, 72 h, read-out: DIZ
Aspergillus flavus [13] = assay: Antifungal activity against Aspergillus flavus MTCC 3306 at 1 mg/ml after 72 hrs by well plate method; format: functional; conditions: MTCC 3306, 72 h, read-out: DIZ

| SMILES | zone of inhibition at 500 µg/mL (Pseudomonas aeruginosa [1]) [mm] | zone of inhibition at 1000 µg/mL (Escherichia coli [2]) [mm] | zone of inhibition at 1000 µg/mL (Staphylococcus aureus [3]) [mm] | zone of inhibition at 500 µg/mL (Escherichia coli [4]) [mm] | zone of inhibition at 500 µg/mL (Staphylococcus aureus [5]) [mm] | zone of inhibition at 1000 µg/mL (Pseudomonas aeruginosa [6]) [mm] | zone of inhibition at 1000 µg/mL (Candida albicans [7]) [mm] | inhibition zone (IZ) [8] [mm] | zone of inhibition at 500 µg/mL (Candida albicans [9]) [mm] | IC50 (Liver microsomes) [uM/ml] | IC50 [10] [uM/ml] | inhibition zone (IZ) [11] [mm] | zone of inhibition at 500 µg/mL (Aspergillus flavus [12]) [mm] | zone of inhibition at 1000 µg/mL (Aspergillus flavus [13]) [mm] |
| --- | --- | --- | --- | --- | --- | --- | --- | --- | --- | --- | --- | --- | --- | --- |
| CN[C@@H]1[C@H](O[C@H]2[C@H](O[C@H]3[C@H](O)[C@@H](O)[C@H](N=C(N)N)[C@@H](O)[C@@H]3N=C(N)N)O[C@@H](C)[C@]2(O)C=O)O[C@@H](CO)[C@H](O)[C@H]1O [STREPTOMYCIN] | 13 | 16 | 15 | 10 | 10 | 16 | – | – | – | – | – | – | – | – |
| COc1cc(C2CC(c3cc4ccccc4o3)=NN2C(=O)Nc2cccc(O)c2)ccc1O (stereo not drawn) | 2 | 3 | 2 | 1 | 1 | 3 | 3 | 2 | 1 | 24 | 21 | 1 | 1 | 2 |
| COc1cc(C2CC(c3cc4ccccc4o3)=NN2)ccc1O (stereo not drawn) | 0 | 0 | 0 | 0 | 0 | 0 | 1 | 1 | 1 | 112 | 100 | 0 | 0 | 0 |
| COc1cc(C2CC(c3cc4ccccc4o3)=NN2C(=O)Nc2ccccc2O)ccc1O (stereo not drawn) | 2 | 3 | 2 | 1 | 1 | 4 | 4 | 4 | 3 | 22 | 19 | 2 | 1 | 2 |
| COc1cc(C2CC(c3cc4ccccc4o3)=NN2C(=O)Nc2ccc(O)c(O)c2)ccc1O (stereo not drawn) | 3 | 2 | 2 | 1 | 1 | 5 | 2 | 2 | 1 | 11 | 9.5 | 1 | 2 | 3 |
| COc1cc(C2CC(c3cc4ccccc4o3)=NN2C(=O)Nc2ccccc2)ccc1O (stereo not drawn) | 1 | 2 | 3 | 1 | 2 | 2 | 2 | 3 | 1 | 116 | 121 | 2 | 1 | 2 |
| COc1ccc(NC(=O)N2N=C(c3cc4ccccc4o3)CC2c2ccc(O)c(OC)c2)cc1 (stereo not drawn) | 5 | 13 | 2 | 1 | 1 | 7 | 5 | 4 | 3 | 29 | 25 | 2 | 3 | 4 |
| COc1cc(C2CC(c3cc4ccccc4o3)=NN2C(=O)Cl)ccc1O (stereo not drawn) | 2 | 3 | 2 | 2 | 1 | 2 | 4 | 3 | 3 | 147 | 135 | 2 | 1 | 2 |
| COc1cc(C2CC(c3cc4ccccc4o3)=NN2C(=O)Nc2ccc([N+](=O)[O-])cc2)ccc1O (stereo not drawn) | 7 | 15 | 8 | 9 | 6 | 9 | 5 | 4 | 4 | 113 | 103 | 3 | 3 | 5 |
| OC(Cn1cncn1)(Cn1cncn1)c1ccc(F)cc1F [FLUCONAZOLE] | – | – | – | – | – | – | 22 | 17 | 20 | – | – | 15 | 10 | 13 |
| COc1cc(C2CC(c3cc4ccccc4o3)=NN2C(=O)Nc2ccc(F)cc2)ccc1O (stereo not drawn) | 16 | 18 | 16 | 12 | 14 | 19 | 24 | 15 | 21 | 125 | 110 | 11 | 9 | 11 |
| COc1cc(C2CC(c3cc4ccccc4o3)=NN2C(=O)Nc2ccc(C)cc2)ccc1O (stereo not drawn) | 3 | 5 | 4 | 4 | 3 | 4 | 3 | 3 | 1 | 44 | 37 | 1 | 2 | 3 |
| COc1cc(C2CC(c3cc4ccccc4o3)=NN2C(=O)Nc2ccc(O)cc2)ccc1O (stereo not drawn) | 2 | 3 | 2 | 2 | 1 | 3 | 4 | 2 | 2 | 15 | 17 | 1 | 2 | 3 |
| COc1cc(NC(=O)N2N=C(c3cc4ccccc4o3)CC2c2ccc(O)c(OC)c2)ccc1O (stereo not drawn) | 1 | 2 | 3 | 1 | 2 | 2 | 2 | 3 | 1 | 12 | 10 | 2 | 1 | 2 |
| COc1cc(C2CC(c3cc4ccccc4o3)=NN2C(=O)Nc2ccc(Br)cc2)ccc1O (stereo not drawn) | 7 | 16 | 8 | 10 | 6 | 10 | 19 | 10 | 15 | 115 | 105 | 9 | 4 | 6 |
| COc1cc(C2CC(c3cc4ccccc4o3)=NN2C(=O)Nc2ccc(Cl)cc2)ccc1O (stereo not drawn) | 15 | 17 | 6 | 11 | 4 | 18 | 20 | 9 | 17 | 121 | 107 | 7 | 7 | 10 |
